IC50 and inhibition data for 23 compounds are collected here from patent US5482967A, “Condensed heterocyclic compounds, their production and use” (Takeda Chemical Industries, Ltd., priority 1992, dated 1996).

Chain of substance P receptor (P25103 whole entry): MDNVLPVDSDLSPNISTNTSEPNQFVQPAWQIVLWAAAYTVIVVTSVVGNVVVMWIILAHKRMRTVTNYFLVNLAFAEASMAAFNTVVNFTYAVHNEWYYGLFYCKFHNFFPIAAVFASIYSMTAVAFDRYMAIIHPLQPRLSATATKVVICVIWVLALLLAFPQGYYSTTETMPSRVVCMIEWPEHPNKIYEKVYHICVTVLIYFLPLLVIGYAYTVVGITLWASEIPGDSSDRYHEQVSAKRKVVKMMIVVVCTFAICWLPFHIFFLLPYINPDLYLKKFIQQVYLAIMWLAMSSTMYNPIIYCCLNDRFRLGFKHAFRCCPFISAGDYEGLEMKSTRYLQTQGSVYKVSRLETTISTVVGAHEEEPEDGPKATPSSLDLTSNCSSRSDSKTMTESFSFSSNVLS

The first test has as its target substance P receptor (Homo sapiens, UniProt P25103). In words: Radioligand receptor binding inhibitory assay using receptor from human lymphoblast cells (IM-9), 125I-BHSP. The following applies: IM-9 receptor, 25° C., 30 minutes. The method in brief:
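IM-9 lymphoblast membranes (suspended at 1.5 mg/ml protein) were incubated with 125I-BHSP (0.46 KBq) at 25 °C for 30 min in 50 mM Tris-HCl pH 7.4 with BSA, protease inhibitors and 3 mM MnCl2. Nonspecific binding was defined with 2×10^-6 M substance P. Bound radioactivity was collected on PEI-treated GF/B filters and gamma-counted.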
As a reminder, the IC50 is the point on the concentration scale where inhibition reaches its midpoint. Regarding `CCn1c(C(=O)N(C)Cc2cc(C(F)(F)F)cc(C(F)(F)F)c2)c(-c2ccccc2)c2ccccc2c1=O` [Example 189, N-[3,5-Bis(trifluoromethyl)benzyl]-1,2-dihydro-2-ethyl-N-methyl-1-oxo-4-phenyl-3-isoquinolinecarboxamide], the IC50 is 1.7 nM. This counts as single-digit nanomolar.
Still for that read-out and setting: the same measure for `CCN(Cc1cc(C(F)(F)F)cc(C(F)(F)F)c1)C(=O)c1c(-c2ccccc2)c2ccccc2c(=O)n1C` [Example 187, N-[3,5-Bis(trifluoromethyl)benzyl]-1,2-dihydro-N-ethyl-2-methyl-1-oxo-4-phenyl-3-isoquinolinecarboxamide]: 1.4 nM; for `Cc1ccc2c(c1)c(-c1ccccc1Cl)c(C(=O)N(C)Cc1cc(C(F)(F)F)cc(C(F)(F)F)c1)c(=O)n2C` [Example 263, N-[3,5-Bis(trifluoromethyl)benzyl]-4-(2-chlorophenyl)-1,2-dihydro-N,1,6-trimethyl-2-oxo-3-quinolinecarboxamide]: 46 nM.
Turning to `Cc1cc2c(-c3ccccc3)c(CC(=O)N(C)Cc3ccccc3Cl)n(C)c(=O)c2cc1C` [Example 221, N-(2-Chlorobenzyl)-1,2-dihydro-N,2,6,7-tetramethyl-1-oxo-4-phenyl-3-isoquinolineacetamide], the IC50 came to 130 nM.

The next test addresses T1, acyl-CoA:cholesterol acyl transferase (ACAT) (Rattus norvegicus, UniProt Q7TQM4).
T1 construct: small intestine mucosal microsome fraction of a 6-week-old male Sprague-Dawley rat; from tissue; host or cells: rat small intestine mucosa, microsome fraction
T1 sequence (Q7TQM4 1-524): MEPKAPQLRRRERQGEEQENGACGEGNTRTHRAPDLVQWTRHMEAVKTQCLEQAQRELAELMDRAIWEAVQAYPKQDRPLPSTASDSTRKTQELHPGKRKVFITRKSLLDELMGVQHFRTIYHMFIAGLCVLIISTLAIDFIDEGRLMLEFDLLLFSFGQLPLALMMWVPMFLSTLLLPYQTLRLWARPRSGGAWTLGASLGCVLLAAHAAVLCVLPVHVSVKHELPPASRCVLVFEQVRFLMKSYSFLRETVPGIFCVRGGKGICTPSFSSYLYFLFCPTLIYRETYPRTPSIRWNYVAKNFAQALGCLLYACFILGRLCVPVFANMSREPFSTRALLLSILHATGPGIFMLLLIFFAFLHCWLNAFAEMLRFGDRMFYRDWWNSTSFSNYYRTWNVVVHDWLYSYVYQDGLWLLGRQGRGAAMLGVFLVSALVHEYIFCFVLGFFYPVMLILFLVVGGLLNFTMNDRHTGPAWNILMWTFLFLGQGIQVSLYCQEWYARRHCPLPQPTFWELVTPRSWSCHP
In words: Inhibitory action against acyl-CoA:cholesterol acyl transferase (ACAT), formation of labeled cholesterol ester, small intestine mucosal microsome fraction. The following applies: 10^-6 M; read-out: ACAT Inhibitory Rate (%). Format: biochemical, male Sprague-Dawley rat. Here is the method:
An ACAT enzyme preparation was prepared from a small intestine mucosal microsome fraction of a 6-week-old male Sprague-Dawley rat, previously fasted for 20 hours, in accordance with the method described by Heider et al. in the Journal of Lipid Research, Vol. 24, page 1127 (1982).
ACAT activity was determined by measuring the amount of labeled cholesterol ester produced from [1-^14 C]-oleoyl-CoA and endogenous cholesterol, in accordance with the method of Helgerud et al. [Journal of Lipid Research, Vol. 22, page 271 (1981)].
As to `O=C(Cc1oc(=O)c2ccc(Cl)cc2c1-c1ccccc1)Nc1ccc(F)cc1F` [Example 49, 6-Chloro-N-(2,4-difluorophenyl)-1-oxo-4-phenyl-1H-2-benzopyran-3-acetamide], the inhibition at 1 µM came to 92.8%.
The same measure, in the same setting: for `CN1C(=O)[C@@H](CC(=O)Nc2ccc(F)cc2F)[C@H](c2ccccc2)c2cc(Cl)ccc21` (relative stereo) [Example 27, 3,4-trans-6-Chloro-N-(2,4-difluorophenyl)-1,2,3,4-tetrahydro-1-methyl-2-oxo-4-phenyl-3-quinolineacetamide] the value was 92%; for `Cc1ccc2c(c1)[C@@H](c1ccccc1)[C@H](CC(=O)Nc1c(C(C)C)cccc1C(C)C)C(=O)N2C` (relative stereo) [Example 60, 3,4-trans-N-[2,6-Bis(1-methylethyl)phenyl]-1,2,3,4-tetrahydro-1,6-dimethyl-2-oxo-4-phenyl-3-quinolineacetamide], 99.9%; for `COc1cc(OC)c(NC(=O)Cc2c(-c3ccccc3)c3cc(C)ccc3oc2=O)c(OC)c1` [Example 54, 6-Methyl-2-oxo-4-phenyl-N-(2,4,6-trimethoxyphenyl)-2H-1-benzopyran-3-acetamide], 98.4%.
The same measure, in the same setting: the same measure for `CC(C)c1cccc(C(C)C)c1NC(=O)CC1=C(c2ccccc2)c2cc(Cl)ccc2N(C)C1` [Example 99, N-[2,6-Bis(1-methylethyl)phenyl]-6-chloro-1,2-dihydro-1-methyl-4-phenyl-3-quinolineacetamide]: 97%.
The same measure, in the same setting: for `Cc1cc2c(cc1C)N(C)C(=O)[C@@H](C(=O)Nc1ccc(F)cc1F)[C@@H]2c1ccccc1Cl` (relative stereo) [Example 10, 3,4-trans-4-(2-Chlorophenyl)-N-(2,4-difluorophenyl)-1,2,3,4-tetrahydro-1,6,7-trimethyl-2-oxo-3-quinolinecarboxamide] the value was 93.3%.
Consider `CCOc1cccc(OCC)c1NC(=O)Cc1c(-c2ccccc2C(F)(F)F)c2cc(Cl)ccc2oc1=O` [Example 95, 6-Chloro-N-(2,6-diethoxyphenyl)-2-oxo-4-(2-trifluoromethylphenyl)-2H-1-benzopyran-3-acetamide], for which the inhibition at 1 µM is 99.1%.
Same read-out and setting: the same measure for `COc1cc(OC)c(NC(=O)C[C@@H]2C(=O)N(C)c3ccc(Cl)cc3[C@H]2c2ccccc2)c(OC)c1` (relative stereo) [Example 25, 3,4-trans-6-Chloro-1,2,3,4-tetrahydro-1-methyl-2-oxo-4-phenyl-N-(2,4,6-trimethoxyphenyl)-3-quinolineacetamide]: 96.9%; for `CC(C)c1cccc(C(C)C)c1NC(=O)C[C@H]1CN(C)c2ccc(Cl)cc2[C@H]1c1ccccc1` (relative stereo) [Example 36, 3,4-cis-N-[2,6-Bis(1-methylethyl)phenyl]-6-chloro-1,2,3,4-tetrahydro-1-methyl-4-phenyl-3-quinolineacetamide]: 98.8%.
In the case of `COc1ccccc1-c1c(CC(=O)Nc2c(C(C)C)cccc2C(C)C)c(=O)oc2ccc(Cl)cc12` [Example 92, N-[2,6-Bis(1-methylethyl)phenyl]-6-chloro-4-(2-methoxyphenyl)-2-oxo-2H-1-benzopyran-3-acetamide], the inhibition at 1 µM worked out at 98.2%.
Still for that read-out and setting: the same measure for `CCOc1cc(F)cc(OCC)c1NC(=O)Cc1c(-c2ccccc2C(F)(F)F)c2cc(Cl)ccc2oc1=O` [Example 96, 6-Chloro-N-(2,6-diethoxy-4-fluorophenyl)-2-oxo-4-(2-trifluoromethylphenyl)-2H-1-benzopyran-3-acetamide]: 99.3%; for `CC(C)c1cccc(C(C)C)c1NC(=O)Cc1c(-c2ccccc2C(F)(F)F)c2cc(Cl)ccc2oc1=O` [Example 94, N-[2,6-Bis(1-methylethyl)phenyl]-6-chloro-2-oxo-4-(2-trifluoromethylphenyl)-2H-1-benzopyran-3-acetamide]: 98.6%; for `O=C(Cc1c(-c2ccccc2)c2cc(Cl)ccc2oc1=O)Nc1ccc(F)cc1F` [Example 52, 6-Chloro-N-(2,4-difluorophenyl)-2-oxo-4-phenyl-2H-1-benzopyran-3-acetamide]: 90.4%.
For `CCOc1cc(F)cc(OCC)c1NC(=O)Cc1c(-c2ccccc2C)c2cc(Cl)ccc2oc1=O` [Example 89, 6-Chloro-N-(2,6-diethoxy-4-fluorophenyl)-4-(2-methylphenyl)-2-oxo-2H-1-benzopyran-3-acetamide], the inhibition at 1 µM came to 98.2%.
The same measure, in the same setting: for `Cc1ccccc1-c1c(CC(=O)Nc2ccc(F)cc2F)c(=O)oc2ccc(Cl)cc12` [Example 83, 6-Chloro-N-(2,4-difluorophenyl)-4-(2-methylphenyl)-2-oxo-2H-1-benzopyran-3-acetamide] the value was 99.4%.
Take `Cc1ccc2oc(=O)c(CC(=O)Nc3ccc(F)cc3F)c(-c3ccccc3)c2c1` [Example 55, N-(2,4-Difluorophenyl)-6-methyl-2-oxo-4-phenyl-2H-1-benzopyran-3-acetamide]: the inhibition at 1 µM came to 97.9%.
On the same count and under the same terms, for `Cc1cccc(C(C)C)c1NC(=O)C[C@@H]1C(=O)N(C)c2ccc(Cl)cc2[C@H]1c1ccccc1` (relative stereo) [Example 23, 3,4-trans-6-Chloro-1-methyl-N-[2-methyl-6-(1-methylethyl)phenyl]-2-oxo-4-phenyl-1,2,3,4-tetrahydro-3-quinolineacetamide] the value was 99.4%; for `COc1cccc(OC)c1NC(=O)Cc1c(-c2ccccc2)c2cc(Cl)ccc2oc1=O` [Example 79, 6-Chloro-N-(2,6-dimethoxyphenyl)-2-oxo-4-phenyl-2H-1-benzopyran-3-acetamide], 99.1%.
Same read-out and setting: the same measure for `Cc1cc2c(cc1C)N(C)C(=O)[C@@H](CC(=O)Nc1c(C(C)C)cccc1C(C)C)[C@@H]2c1ccccc1Cl` (relative stereo) [Example 20, 3,4-trans-N-[2,6-Bis(1-methylethyl)phenyl]-4-(2-chlorophenyl)-1,2,3,4-tetrahydro-1,6,7-trimethyl-2-oxo-3-quinolineacetamide]: 97.8%.
